Assays:
Assay in all cases: in vitro test Minimal Inhibitory Concentration (MIC)
Format in all cases: cell-based
[1] = test system: A. naeslundii
Description: (§1) For example, the oral compositions of the present invention are bactericidal against representative oral bacteria, such as S. mutans, F. nucleatum, V. parvula, A. naeslundii, and P. gingivitis as measured by the in vitro test Minimal Inhibitory Concentration (MIC). The oral composition of the present invention is applied to the oral surfaces in the oral cavity, and promotes overall oral health, including preventing plaque formation, caries formation, calculus formation, halitosis, gingivitis, and periodontitis, for example. For example, in an embodiment of the present invention, where an oral care composition comprises an orally acceptable delivery carrier and a safe and effective amount of the combination of an extract of hops and an extract of magnolia, it has been observed that the antibacterial activity is highly efficacious against both gram-positive and gram-negative bacteria.
(§2) It should be noted that any plant from the Magnoliaceae family is suitable for the present invention and may be used in alternate embodiments. Preferably such that the extract comprises an antimicrobially effective concentration of a compound selected from the group consisting of magnolol, honokiol, tetrahydromagnolol, tetrahydrohonokiol, and mixtures thereof.

[2] = test system: F. nucleatum
Description: as §1, §2

[3] = test system: P. gingivitis
Description: as §1, §2

[4] = test system: S. mutans
Description: as §1, §2

[5] = test system: V. parvula
Description: as §1, §2

Measured: bactericidal properties in Minimal Inhibitory Concentration (MIC) test

CCCc1ccc(O)c(-c2ccc(O)c(CCC)c2)c1 [tetrahydrohonokiol]
bactericidal: all assays above

C=CCc1ccc(O)c(-c2cc(CC=C)ccc2O)c1 [magnolol]
bactericidal: all assays above

C=CCc1ccc(O)c(-c2ccc(O)c(CC=C)c2)c1 [honokiol]
bactericidal: all assays above

CCCc1ccc(O)c(-c2cc(CCC)ccc2O)c1 [tetrahydromagnolol]
bactericidal: all assays above

From patent publication US8900644B2, “Oral care compositions containing compounds from magnolia and hops extracts” (Colgate-Palmolive Company, priority 2004, dated 2014)
